From US9084782B2, “Chemical inhibitors of cholesterol biosynthesis and venous angiogenesis” (The Regents of the University of California, priority 2011, dated 2015)
Entries after “also recorded” stand apart in the source; their conditions may differ.

Experiments:
HMGCR pathway = assay: Microarray expression profiling of aplexone-treated embryos (Affymetrix Zebrafish GeneChip); assay type: in vivo; conditions: 10 μM, RNA at 30 hpf
Procedure: Embryos at the 5-somite stage were treated with 0.4% DMSO (control) or 10 μM of aplexone in 0.4% DMSO and total RNA was isolated using the RNAeasy micro kit (Qiagen) at 30 hpf. Microarray analysis was performed in triplicate using the Affymetrix Zebrafish GeneChip, representing 15,617 genes. Synthesis and labeling of antisense RNA was performed as recommended by the array manufacturer using kits from Invitrogen for double-stranded cDNA synthesis, Enzo Life Sciences for transcription and labeling of antisense RNA and Affymetrix for probe purification and hybridization controls. Microarray hybridization data were analyzed using scripts written in the statistical programming language R (Team, 2009). Differentially expressed genes (DEGs) were identified using a linear model and multiple testing correction from the limma package (Smyth, 2004). The expression values were obtained using the robust multi array algorithm (Irizarry et al., 2003).

primordial germ cells = assay: Primordial germ cell migration, in situ hybridization with nanos probe; assay type: in vivo, zebrafish; conditions: 10 μM aplexone
Procedure: (§1) A,B,C, Overall phenotype of control and aplexone-treated embryos at 30 hpf. A′,B′,C′, Vasculature in trunk. […] D-E, Germ cells in control and aplexone treated embryos at 24 hpf were detected by in situ hybridization using the nanos probe. F, The percentage of embryos with ectopic primordial germ cells in control (n=26), 5 μM (n=13), and 10 μM (n=14) aplexone-treated embryos. […] I, The percentage of embryos with cardia bifida in control (n=16) and 10 μM-(n=17), 20 μM-(n=17) and 30 μM-(n=18) aplexone-treated embryos.

cardiomyocytes = assay: Cardiomyocyte migration / heart tube formation in Tg(myl7:GFP) embryos; assay type: in vivo, zebrafish; conditions: 30 μM aplexone
Procedure: as §1

germ cell migration (primordial germ cells): defect in germ cell migration
Structure (SMILES): CC(=O)C1=CCC(c2ccccc2)N(S(=O)(=O)c2ccc(C)cc2)C1 (stereo not drawn) [aplexone]
fold change 3-hydroxy-3-methylglutaryl-Coenzyme A synthase 1 (HMGCS) (HMGCR pathway): 2.0 fold
fold change Krueppel-like factor 11 (TIEG-2) (HMGCR pathway): 2.1 fold
fold change carbonyl reductase 1-like (HMGCR pathway): 2.1 fold
fold change coronin, actin binding protein, 1A (HMGCR pathway): −2.1 fold
fold change cytochrome P450, family 51 (CYP51) (HMGCR pathway): 2.8 fold
fold change farnesyl diphosphate synthetase (FDPS) (HMGCR pathway): 2.0 fold
fold change fatty acid desaturase 2 (HMGCR pathway): 2.4 fold
fold change glutamate dehydrogenase 1a (HMGCR pathway): 2.2 fold
fold change glutathione S-transferase (HMGCR pathway): 3.2 fold
fold change glutathione reductase like (HMGCR pathway): 2.2 fold
fold change insulin induced gene 1 (INSIG) (HMGCR pathway): 2.6 fold
fold change insulin-like growth factor binding protein 1 (HMGCR pathway): 2.1 fold
fold change lymphocyte cytosolic plastin 1 (HMGCR pathway): −2.7 fold
fold change lysozyme (HMGCR pathway): −2.7 fold
fold change myosin regulatory light chain interacting protein (HMGCR pathway): −2.1 fold
fold change nephrosin (HMGCR pathway): −2.4 fold
fold change selenoprotein W (HMGCR pathway): 3.1 fold
fold change sterol-C4-methyl oxidase-like (SC4MOL) (HMGCR pathway): 2.0 fold
fold change sulfotransferase (HMGCR pathway): 3.0 fold
fusion of cardiac primordia / cardiomyocyte migration to midline (cardiomyocytes): defects in the fusion of the bilaterally positioned cardiac primordia; also recorded: fail to migrate to midline
